Earlier results in patent EP0292255A2, “Inhibitor of ribonucleotide reductase” (Merck & Co., Inc., priority 1987, dated 1988).
Ends that are not written are not given here.

System: ribonucleotide reductase enzyme of herpes simplex virus
Settings: result in words, from Nature 321:439-441 and 441-443 (1986)

Row | Substance | inhibition of the activity of the ribonucleotide reductase enzyme of herpes simplex virus in vitro
1 | Tyr Ala Gly Ala Val Val Asn Asp Leu (YAGAVVNDL; printed: Tyr Ala Gly Ala Val Val Asn Asp Leu) [nonapeptide disclosed by Dutia et al. and Cohen et al] | inhibited
2 | YGAVVNDL [8-desalanine homolog of the nonapeptide, disclosed by Dutia et al] | inhibited
